Common to all, as to format: physicochemical
Series [1] can be described thus: Thermogravimetric analysis (TGA). As for the experimental part:
TGA data were collected on a TA Instruments Q500 TGA, equipped with a 16-position auto-sampler. The instrument was temperature calibrated using certified Alumel™ and Nickel. Typically 5-10 mg of each sample was loaded onto a pre-tared aluminum DSC pan and heated at 10° C./min from ambient temperature to 350° C. A nitrogen purge at 60 ml/min was maintained over the sample.
TG analyses were performed using a TA Instruments Q5000 IR thermogravimetric analyzer. Temperature calibration was performed using nickel and Alumel™. Each sample was placed in an aluminum pan. The sample was hermetically sealed, the lid pierced, then inserted into the TG furnace. The furnace was heated under nitrogen.

A short description of series [2]: Variable temperature XRPD. Particulars: 25° C. to 160° C.; listed as morphic Form I. As for the experimental part:
Samples run under non-ambient conditions were mounted on a silicon wafer with heat-conducting compound. The sample was then heated to the appropriate temperature at 20° C./min and subsequently held isothermally for 1 minute before data collection was initiated.

Series [3] in a line: XRPD after storage for four years at 2-8° C. From the text: Without wishing to be bound by theory, the results of FIGS. 5 and 6 are further supported by FIG. 7. […] (710).
The nature of series [4]: Cocrystal screen of marizomib.

`C[C@@]12OC(=O)[C@]1([C@@H](O)[C@@H]1C=CCCC1)NC(=O)[C@@H]2CCCl` [Sample 4, marizomib]: in series [1], the “TGA weight loss prior to decomposition” value was “negligible weight loss prior to decomp”. The “TGA (onset, decomp.)” value in series [1] (Sample 4 prior to testing) is 168 °C (onset, decomp.). Further, the “TGA: decomposition after” value in series [1] (as stated in cocrystal discussion) is “approximately 150 °C”.
Regarding `C[C@@]12OC(=O)[C@]1([C@@H](O)[C@@H]1C=CCCC1)NC(=O)[C@@H]2CCCl` [marizomib], the “weight loss (TGA)” value in series [1] (solids from 2-pyrrolidone (1:1) cocrystal experiment, from 27.1° C. to 92.0° C.) is 5.0%; in series [1] (solids from Melamine (1:1) cocrystal experiment, from 30.2° C. to 104.0° C.) it was 10.3%; in series [1] (solids from Melamine (1:1) cocrystal experiment, from 30.2° C. to 146.0° C.) it was “C. 21.1%”. Moreover, the “Morphic form on heating (variable temperature XRPD)” value in series [2] was “stable even at elevated temperatures”. The “XRPD spectra initially versus after storage” value in series [3] is given as “substantially identical”. Besides, the Cocrystal formation entry in series [4] (about 117 experiments, 46 coformers/counterions) is on record as “cocrystal formation did not occur”. Also, the “XRPD Results” value in series [4] (coformer (2-hydroxypropyl)-β-cyclodextrin (1:1), MeOH/acetone, slurry 50° C. 2 days, supernatant decanted, SE, RT) was “MRZ”; in series [4] (coformer (2-hydroxypropyl)-β-cyclodextrin (2:1), H2O/ACN, slurry 50° C. 2 days, slurry RT 6 days, SE, RT), “MRZ”; in series [4] (coformer Acetic acid (1:2), acetone, stir, RT, 5 days, cool 2-8° C., 3 days, SE, RT), “MRZ”; in series [4] (coformer Acetic acid (large excess), slurry, RT), “MRZ”; in series [4] (coformer Adenine (1:1), EtOH, slurry, RT, 5 days) it was “MRZ”; in series [4] (coformer Benzoic acid (1:5), MEK:MIBK (20:80), slurry, RT, 7 days) it was “MRZ”. Besides, the “XRPD Results” value is “MRZ” in series [4] (coformer Benzoic acid (2:1), EtOAc, SE, RT); “Caffeine” in series [4] (coformer Caffeine (1:3), DMF:anisole (25:75), slurry, RT, 6 days); “MRZ” in series [4] (coformer DL-malic acid (1:3), dioxane, slurry 60° C. O/N, stir RT 1 day, FE, RT); “MRZ” in series [4] (coformer Gentisic acid (1:1), t-BuOH, slurry, 50° C., 2 days); “MRZ” in series [4] (coformer Gentisic acid (1:5), MEK:IPA (20:80), slurry, RT, 6 days); “MRZ” in series [4] (coformer Gentisic acid (2:1), ACN, FC, 60° C. to RT). Also, the “XRPD Results” value was “MRZ” in series [4] (coformer Glutaric acid (1:3), EtOH, slurry, RT, 6 days); “MRZ” in series [4] (coformer Glycolic acid (1:2), acetone, SE, RT); “MRZ” in series [4] (coformer Hydantoin (1:1), 2:1 dioxane:H2O, slurry, RT); “MRZ” in series [4] (coformer Hydantoin (1:3), H2O/ACN, slurry 60° C. overnight, stir RT 1 day); “MRZ” in series [4] (coformer L-Serine (1:1), H2O/THF, stir RT 3 days, SE, RT); “MRZ” in series [4] (coformer L-Serine (1:3), H2O/MeOAc, slurry 60° C. O/N, stir RT 1 day, FE, RT). The “XRPD Results” value in series [4] (coformer L-alanine (1:1), MeOH, slurry 60° C. O/N, slurry RT 1 day) is “MRZ”; in series [4] (coformer L-arginine (1:1), HFIPA/dioxane, stir, RT, ~25 minutes), “MRZ”; in series [4] (coformer L-ascorbic acid (1:1), IPA/MeOH at 50° C., FC to RT) it was “MRZ”; in series [4] (coformer L-cysteine (1:1), grind ~10 minutes, EtOH/dioxane (50/50), temperature cycle RT and 50° C.), “MRZ”; in series [4] (coformer L-lysine (1:1), HFIPA/THF, stir, RT, ~35 minutes), “MRZ”; in series [4] (coformer L-proline (sat'd in IPA at 50° C.), added to MRZ at 50° C., temp cycle (50° C.-RT)), “MRZ”. The “XRPD Results” value in series [4] (coformer L-proline sat'd in H2O/MeOH 50/50 v/v, slurry 50° C. 2 days, slurry RT 3 days) is “L-proline”; in series [4] (coformer Maleic acid (1:1), nitromethane, SC, 50° C. to RT), “MRZ”; in series [4] (coformer Maleic acid (1:3), 1-PrOH, slurry, RT, 6 days), “MRZ”; in series [4] (coformer Nicotinamide (1:1), ACN, FC, 70° C. to RT) it was “MRZ”; in series [4] (coformer Orotic acid (2:1), nitromethane, slurry, 50° C., 6 days), “MRZ”; in series [4] (coformer Oxalic acid (1:2), EtOH/MEK, stir, RT, 7 days), “MRZ”. Also, the “XRPD Results” value in series [4] (coformer Saccharin (1:1), IPA, FC, 70° C. to RT) is recorded as “MRZ”; in series [4] (coformer Salicylic acid (1:1), EtOAc:toluene (50:50), FC, 75° C. to RT), “MRZ”; in series [4] (coformer Salicylic acid (1:3), EtOH/MIBK, stir, RT), “MRZ”; in series [4] (coformer Succinic acid (1:2), MeOH/acetone, stir, RT, 5 days) it was “MRZ”; in series [4] (coformer Thymine (1:1), MeOH/EtOAc, slurry 50° C. 2 days, slurry RT 6 days), “Thymine”; in series [4] (coformer Urea (2:1), EtOAc, FC, 50° C. to RT) it was “MRZ”.

The record behind these values is patent publication US10703760B2, “Morphic forms of marizomib and uses thereof” (Celgene International II Sàrl, priority 2016, dated 2020).
